Measurements from BindingDB's records for doi:10.1016/s0960-894x(01)00765-x (Bristol Myers Squibb, 2002).

Target: T1, Neuropeptide Y receptor type 1 (Homo sapiens, UniProt P25929)
T1 sequence (P25929 whole entry): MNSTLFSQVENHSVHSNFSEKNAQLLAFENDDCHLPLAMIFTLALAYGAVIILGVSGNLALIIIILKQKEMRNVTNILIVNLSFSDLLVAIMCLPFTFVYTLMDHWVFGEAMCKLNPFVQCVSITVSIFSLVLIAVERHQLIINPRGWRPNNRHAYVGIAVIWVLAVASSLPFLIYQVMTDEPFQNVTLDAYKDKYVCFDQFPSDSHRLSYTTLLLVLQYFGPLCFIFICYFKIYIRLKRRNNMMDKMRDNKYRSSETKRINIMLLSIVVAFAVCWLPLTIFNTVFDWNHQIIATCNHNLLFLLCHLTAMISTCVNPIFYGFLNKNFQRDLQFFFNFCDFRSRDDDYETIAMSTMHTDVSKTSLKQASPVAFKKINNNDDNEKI
Assay: ChEBML_143683
Text: Binding affinity against Neuropeptide Y receptor type 1 using I-PYY as a radioligand in human neuroblastoma SK-N-MC cells

SMILES: COC(=O)C1=C(C)N=C(C)C(C(=O)OC)N1c1cccc(NC(=S)NCCCN2CCN(C3CCCCC3)CC2)c1 (configuration not stated) [1-(3-{3-[3-(4-Cyclohexyl-piperazin-1-yl)-propyl]-thioureido}-phenyl)-3,5-dimethyl-1,4-dihydro-pyrazine-2,6-dicarboxylic acid dimethyl ester]
- IC50: > 1 µM

SMILES: COC(=O)C1=C(C)N=C(C)C(C(=O)OC)N1c1cccc(NC(=S)NCCCN2CCC(C(C)(C)C)CC2)c1 (configuration not stated) [1-(3-{3-[3-(4-tert-Butyl-piperidin-1-yl)-propyl]-thioureido}-phenyl)-3,5-dimethyl-1,4-dihydro-pyrazine-2,6-dicarboxylic acid dimethyl ester]
- IC50: > 1 µM
